In the assay the target is PI 3-kinase delta (Homo sapiens (Human), UniProt O00329). The experiment in a line: TR-FRET Adapta assay (Assay F). The assay is classed as biochemical. The following applies: read-out: Assay F PI3Kδ IC50. The source says:
TR-FRET Adapta Assay for PI 3-Kinase Gamma (E), PI 3-Kinase Delta (F)
The TR-FRET Adapta™ Universal Kinase Assay Kit was purchased from Invitrogen Corporation (Carlsbad/CA, USA) (Cat. No. PV5099). The kit contains the following reagents: Adapta Eu-anti-ADP Antibody (Europium labeled anti-ADP antibody in HEPES buffered saline, Cat. No. PV5097), Alexa Fluor® 647-labeled ADP tracer (Alexa Fluor® 647-labeled ADP tracer in HEPES buffered saline, Cat. No. PV5098), TR-FRET dilution buffer pH 7.5 (Cat. No. PV3574). PIK3CD substrate phosphatidylinositol (PI) was obtained from Invitrogen (vesicules consisting of 2 mM phosphatidylinositol (PI) in 50 mM HEPES pH7.5; Cat. No. PV5371). PIK3CG substrate phosphatidylinositol-4,5-bisphosphate (PIP(4,5)2 was obtained from Invitrogen (PIP2:PS large unilamellar vesicules consisting of 1 mM PIP2: 19 mM PS in 50 mM HEPES pH7.5, 3 mM MgCl2, 1 mM EGTA; Cat. No. PV5100).
Time-Resolved Fluorescence Resonance Energy Transfer (TR-FRET) is a technology based on energy transfer between two adjacent dyes, from an excited electron in one dye (the donor) to an electron of an adjacent dye (the acceptor) through resonance, then released as a photon. This energy transfer is detected by an increase in the fluorescence emission of the acceptor, and a decrease in the fluorescence emission of the donor. TR-FRET assays for protein kinases use a long-lifetime lanthanide Terbium or Europium chelates as the donor species which overcome interference from compound autofluorescence or light scatter from precipitated compounds, by introducing a delay after excitation by a flashlamp excitation source. Results are often expressed as a ratio of the intensities of the acceptor and donor fluorophores. The ratiometric nature of such a value corrects for differences in assay volumes between wells, as well as corrects for quenching effects due to colored compounds. The Adapta™ assay can be divided into two phases: a kinase reaction phase and an ADP detection phase. In the kinase reaction phase, all kinase reaction components are added to the well and the reaction is allowed to incubate for a set period of time specific for each kinase. After the reaction, a detection solution of Eu-labeled anti-ADP antibody, Alexa Fluor® 647-labeled ADP tracer, and EDTA (to stop the kinase reaction) are added to the assay well. ADP formed by the kinase reaction will displace the Alexa Fluor® 647-labeled ADP tracer from the antibody, resulting in a decrease in TR-FRET signal. In the presence of an inhibitor, the amount of ADP formed by the kinase reaction is reduced, and the resulting intact antibodytracer interaction maintains a high TR-FRET signal. In the Adapta™ assay, the donor (Europium-anti-ADP antibody) is excited at 340 nm and will transfer its energy to the acceptor (Alexa Fluor® 647-labeled ADP tracer). The emission from the Alexa Fluor® 647 can be monitored with a filter centered at 665 nm because it is located between the emission peaks of the donor, which is measured at 615/620 nm. 50 nL of compound dilutions were dispensed onto white 384-well small volume polystyrene plate. Then 5 μL of either PI 3-kinase gamma or PI 3-kinase delta and lipid substrate (P1 or PIP2:PS) followed by 5 μL of ATP (final assay volume 10 μL) are incubated at RT. The standard reaction buffer for the Adapta™ TR-FRET assay contained 10 mM Tris-HCl pH 7.5, 3 mM MgCl2, 50 mM NaCl, 1 mM DTT, 0.05% CHAPS ((3-[(3-cholamidopropyl)dimethylammonio]-1-propanesulfonate). Reactions were stopped with 5 μL of a mixture of EDTA containing the Eu-labeled anti-ADP antibody and the Alexa Fluor® 647-labeled ADP tracer in TR-FRET dilution buffer. Plates are read 15 to 60 mins later in a Synergy2 reader using an integration time of 0.4 seconds and a delay of 0.05 seconds. Control for the 100% inhibition of the kinase reaction was performed by replacing the PI 3-kinase by the standard reaction buffer. […]
Background: In TR-FRET formats the signal depends on donor and acceptor labels being close together.

PI 3-kinase delta, sequence (O00329 2-1044): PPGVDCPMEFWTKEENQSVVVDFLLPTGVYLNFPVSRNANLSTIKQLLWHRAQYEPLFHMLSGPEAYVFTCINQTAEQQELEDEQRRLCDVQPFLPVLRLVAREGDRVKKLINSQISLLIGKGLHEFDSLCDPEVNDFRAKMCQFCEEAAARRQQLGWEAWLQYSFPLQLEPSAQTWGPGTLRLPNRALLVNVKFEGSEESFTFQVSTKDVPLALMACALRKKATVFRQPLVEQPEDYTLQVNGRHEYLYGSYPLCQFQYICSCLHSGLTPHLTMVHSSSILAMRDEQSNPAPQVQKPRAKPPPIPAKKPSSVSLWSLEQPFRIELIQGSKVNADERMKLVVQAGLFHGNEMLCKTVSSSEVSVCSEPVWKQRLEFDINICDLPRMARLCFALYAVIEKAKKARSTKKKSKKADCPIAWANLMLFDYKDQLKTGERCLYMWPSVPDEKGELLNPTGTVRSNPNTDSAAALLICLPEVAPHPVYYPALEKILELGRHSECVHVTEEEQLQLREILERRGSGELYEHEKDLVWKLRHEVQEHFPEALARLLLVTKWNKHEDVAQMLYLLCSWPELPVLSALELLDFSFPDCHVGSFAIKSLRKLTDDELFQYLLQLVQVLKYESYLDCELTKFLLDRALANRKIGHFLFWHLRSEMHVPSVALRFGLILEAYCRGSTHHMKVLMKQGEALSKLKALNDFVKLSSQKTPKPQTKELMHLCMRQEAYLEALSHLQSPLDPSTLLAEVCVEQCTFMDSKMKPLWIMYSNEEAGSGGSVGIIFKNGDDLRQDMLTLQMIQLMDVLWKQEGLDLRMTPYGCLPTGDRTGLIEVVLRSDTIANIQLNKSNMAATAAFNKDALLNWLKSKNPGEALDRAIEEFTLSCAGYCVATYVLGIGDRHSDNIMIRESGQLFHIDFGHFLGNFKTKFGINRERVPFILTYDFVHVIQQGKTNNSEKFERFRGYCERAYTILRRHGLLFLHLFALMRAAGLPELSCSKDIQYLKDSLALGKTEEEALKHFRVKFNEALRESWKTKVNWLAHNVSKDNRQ

`Cc1ncc(-c2cncc(-c3cc(S(=O)(=O)NCCCO)ccc3C)n2)s1` [Example 1, N-(3-Hydroxy-propyl)-4-methyl-3-[6-(2-methyl-thiazol-5-yl)-pyrazin-2-yl]-benzenesulfonamide]: the half-maximal inhibitory concentration (IC50) (as a rule, the point on the concentration scale where inhibition reaches its midpoint) is 200 nM.

For the molecule `Cc1ccc(S(=O)(=O)NCC(C)(C)O)cc1-c1cncc(-c2cn(C)nc2C)n1` [Example 2, 3-[6-(1,3-Dimethyl-1H-pyrazol-4-yl)-pyrazin-2-yl]-N-(2-hydroxy-2-methyl-propyl)-4-methyl-benzenesulfonamide], the 50% inhibitory concentration (IC50) worked out at 60 nM.

Consider `Cc1ccc(S(=O)(=O)NCCC(C)(C)O)cc1-c1cncc(-c2cn(C)nc2C)n1` [Example 3, 3-[6-(1,3-Dimethyl-1H-pyrazol-4-yl)-pyrazin-2-yl]-N-(3-hydroxy-3-methyl-butyl)-4-methyl-benzenesulfonamide], for which the 50% inhibitory concentration (IC50) stood at 70 nM.

In the case of `Cc1ccc(S(=O)(=O)NCC2(C)COC2)cc1-c1cncc(-c2cn(C)nc2C)n1` [Example 4, Trans 3-[6-(1,3-Dimethyl-1H-pyrazol-4-yl)-pyrazin-2-yl]-4-methyl-N-(3-methyl-oxetan-3-ylmethyl)-benzenesulfonamide], the IC50 amounted to 70 nM.

In the case of `Cc1ncc(-c2cncc(-c3cc(S(=O)(=O)N[C@H]4CC[C@H](O)CC4)ccc3C)n2)s1` [Example 5, Trans N-(4-Hydroxycyclohexyl)-4-methyl-3-(6-(2-methylthiazol-5-yl)pyrazin-2-yl)benzenesulfonamide], the IC50 was 90 nM.

Regarding `Cc1ccc(S(=O)(=O)NCC(C)(C)CO)cc1-c1cncc(-c2cn(C)nc2C)n1` [Example 8, 3-[6-(1,3-Dimethyl-1H-pyrazol-4-yl)-pyrazin-2-yl]-N-(3-hydroxy-2,2-dimethyl-propyl)-4-methyl-benzenesulfonamide], the IC50 is 70 nM.

Take `Cc1ccc(S(=O)(=O)NCCC(C)(C)O)cc1-c1cncc(-c2cnn(CCN3CCOCC3)c2)n1` [Example 9, N-(3-Hydroxy-3-methyl-butyl)-4-methyl-3-{6-[1-(2-morpholin-4-yl-ethyl)-1H-pyrazol-4-yl]-pyrazin-2-yl}-benzenesulfonamide]: the half-inhibitory concentration (IC50) turned out to be 10 nM.

For `Cc1ccc(S(=O)(=O)NCCC(C)(C)O)cc1-c1cncc(-c2cn(CCN3CCOCC3)nc2C)n1` [Example 10, N-(3-Hydroxy-3-methyl-butyl)-4-methyl-3-{6-[3-methyl-1-(2-morpholin-4-yl-ethyl)-1H-pyrazol-4-yl]-pyrazin-2-yl}-benzenesulfonamide], the IC50 amounted to 20 nM.

As to `Cc1ccc(S(=O)(=O)N[C@H]2CC[C@H](O)CC2)cc1-c1cncc(-c2cccnc2)n1` [Example 11, Trans N-(4-Hydroxy-cyclohexyl)-4-methyl-3-(6-pyridin-3-yl-pyrazin-2-yl)-benzenesulfonamide], the half-inhibitory concentration (IC50) was determined as 120 nM.

Values taken from patent US9862711B2, “Pyrazine derivatives as phosphatidylinositol 3-kinase inhibitors” (NOVARTIS AG, priority 2014, dated 2018).
